Experimental data: US5455229A, “Method for minimizing and containing ischemic and reperfusion injury” (Eli Lilly and Company, priority 1992, dated 1995)

Key:
dog = conditions: Diaz et al., Am. J. Cardiol. 40: 541-549, 1977; cited from earlier work
beagle dogs = experiment: In vivo assay: myocardial infarct size following coronary artery occlusion (1 hr) and reperfusion (5 hr) in anesthetized dogs; set-up: species or system dog; conditions: dogs infused with aprotinin, control dogs 37.9±5.4%, P<0.05
Method: Adult male beagle dogs weighing approximately 9-14 kg were anesthetized with pentobarbital sodium (30 mg/kg, i.v.). The tracheae were intubated, and the dogs were ventilated with room air delivered from a Harvard respirator (ventilation rate of 16 cycles/min, tidal volume, 25 ml/kg). Body temperature was maintained at 37-°38° C. with a heating pad. Catheters were placed in the left femoral artery and vein for measurement of phasic arterial blood pressure (Starham transducer, P23ID) and i.v. infusion of drug solutions, respectively. Mean arterial blood pressure was calculated as diastolic blood pressure plus 1/3 pulse pressure. Cardiac rate was monitored by a cardiotachometer that was triggered by the systolic pressure pulse, while the pressure rate product was monitored as an index of myocardial oxygen demand. […] Directly measured parameters were recorded continuously on a multichannel oscillograph (Beckman Instruments,Inc., Fullerton Calif.; model R611).
A left thoracotomy was performed at the fifth intercostal space, the heart was suspended in a pericardial cradle, and the left circumflex coronary artery (LCX) was isolated distal to its atrial branch and proximal to any major ventricular branches. Baseline circumflex coronary artery blood flow was measured using a calibrated flowprobe (Carolina Medical Electronics, 6 mm I.C.) connected to a Carolina flowmeter (model FM501). […]

aprotinin [reference compound]
myocardial ischemic injury associated with coronary artery occlusion (dog): has been shown to limit myocardial ischemic injury | infarct size, % of the left ventricular mass at risk of necrosis (beagle dogs): 24.8±2.4%
